Positions of bridges follow the written chain, without caps; N, C: chain ends. Residues, ends and D or L forms follow the SMILES beside them. No end group written: not given here.
Columns and labels:
[1] = test system: primary rat osteoblastic cultures; conditions: cited from earlier work
NPR-C [2] = target: T1, NPR-C (Homo sapiens, UniProt P17342); assay: ANP-stimulated cGMP in NPR-C overexpressing HEK293 cells; assay type: cell-based; conditions: NPR-C overexpressing cells, 0.1 nM ANP[1-28] alone
T1 construct: expressed in transfected cells; host or cells: HEK293, transient, pCDNA1.1 (CMV promoter)
T1 sequence (P17342 27-541): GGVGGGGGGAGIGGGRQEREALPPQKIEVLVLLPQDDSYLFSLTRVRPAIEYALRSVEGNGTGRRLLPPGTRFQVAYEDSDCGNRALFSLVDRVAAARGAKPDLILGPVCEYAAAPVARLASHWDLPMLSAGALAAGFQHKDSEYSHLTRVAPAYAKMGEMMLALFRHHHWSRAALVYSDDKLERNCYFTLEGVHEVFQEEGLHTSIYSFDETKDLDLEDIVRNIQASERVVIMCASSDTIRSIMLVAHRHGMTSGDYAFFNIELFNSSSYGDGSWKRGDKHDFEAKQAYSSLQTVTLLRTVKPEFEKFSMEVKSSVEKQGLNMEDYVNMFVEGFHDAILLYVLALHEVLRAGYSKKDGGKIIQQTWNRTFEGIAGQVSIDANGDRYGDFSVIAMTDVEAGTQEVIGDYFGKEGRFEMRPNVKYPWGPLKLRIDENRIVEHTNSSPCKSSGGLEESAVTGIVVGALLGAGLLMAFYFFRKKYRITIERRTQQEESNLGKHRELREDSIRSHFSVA
Text: The expression plasmid for rat GC-A containing the entire coding sequence cloned between the NheI-KpnI sites of CMV-driven pBK plasmid (Stratagene, La Jolla, Calif.) was kindly provided by Dr. A. De Léan (Département de Pharmacologie, Université de Montréal). The human NPR-C and GC-B coding sequences were amplified by RT-PCR from human embryonic kidney polyA RNA (Clontech, Palo Alto, Calif.) with the following primer pairs: NPR-C-5′-[…]-3′(forward) (SEQ ID NO: 74) and 5′-[…]-3′ (SEQ ID NO: 75) (reverse); GC-B-5′-[…]-3′ (SEQ ID NO: 76) (forward) and 5′-[…]-3′ (SEQ ID NO: 77) (reverse). The resulting PCR products were then cloned downstream of the CMV-promoter into the pCDNA1.1 plasmid (Invitrogen, Burlington, ON, Canada). All constructs were validated by DNA sequencing.

NPR-C [3] = target: T2, NPR-C (Mus musculus, UniProt P70180); assay: Competitive binding of 125I-Ostn[83-133] on ATDC5 cells
T2 construct: NPR-C was also found to be expressed in these cells; endogenous in cells; host or cells: ATDC5 (mouse chondrogenic cell line), intact cells
T2 sequence (P70180 41-536): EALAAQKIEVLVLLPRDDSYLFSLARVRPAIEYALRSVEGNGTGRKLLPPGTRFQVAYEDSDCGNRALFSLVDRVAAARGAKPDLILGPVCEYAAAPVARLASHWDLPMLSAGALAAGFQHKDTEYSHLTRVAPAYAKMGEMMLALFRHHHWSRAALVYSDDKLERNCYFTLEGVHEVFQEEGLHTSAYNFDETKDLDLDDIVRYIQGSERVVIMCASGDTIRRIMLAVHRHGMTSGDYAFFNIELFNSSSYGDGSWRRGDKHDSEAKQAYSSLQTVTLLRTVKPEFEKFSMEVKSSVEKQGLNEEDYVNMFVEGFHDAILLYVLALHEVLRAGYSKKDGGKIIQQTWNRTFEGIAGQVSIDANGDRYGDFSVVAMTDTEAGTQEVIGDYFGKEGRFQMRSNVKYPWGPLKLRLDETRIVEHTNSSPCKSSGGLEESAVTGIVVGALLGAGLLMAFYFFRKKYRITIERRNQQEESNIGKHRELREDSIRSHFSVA
Text: (§1) To gain further insight into the cellular basis of the interaction between CNP and Ostn in endochondral bone formation, ATDC5 cells were used. These cells are a mouse chondrogenic cell line derived from embryogenic carcinoma cells (Shukunami et al., 1996). […] In another study, NPR-C was also found to be expressed in these cells and the amount of transcripts decreased in association with the chondrogenic differentiation (Fujishige et al., 1999).
(§2) Cold and radio iodinated human Ostn[83-133] (SEQ ID NO: 41) were purchased from Phoenix Pharmaceutical co. (CA, USA). CNP was obtained from Sigma (St. Louis, USA) and rat C-ANF was purchased from Bachem (CA, USA). Cyclic GMP direct Biotrak™ EIA kit was obtained from Amersham Biosciences (Quebec, Canada) and DMEM/F-12 and PBS were obtained from Wisent (Quebec, Canada). Protease inhibitors were purchased from Roche (Quebec, Canada)
ATDC5 cells, grown in 24-well plates to 90% confluence, were washed twice with cold PBS and incubated with 500 μl of DMEM/F-F12 containing 0.1% BSA (wt/vol), protease inhibitor (40 μl/ml of medium), ^1251-Ostn[83-133] (0.05 μCi/well) and varying concentration of cold Ostn[83-133] (SEQ ID NO: 41) for 90 min at 4° C. After incubation, cells were washed twice with ice-cold PBS and solubilized with 0.5-ml of 0.5 M NaOH.
The radioactivity was measured with gamma-counter (Wallac).

[4] = test system: foetal mouse tibial organ culture; conditions: ex vivo foetal mouse tibia; cited from earlier work
ATDC5 cells = assay: cGMP production in ATDC5 cells; assay type: cell-based, mouse; conditions: for cGMP production by peptide alone: 0.1 μM
Text: as §1, with “1999). Therefore, ATDC5 cells are considered to be a good model to study the interaction between CNP and Ostn in vitro.” for “1999).”
as §2
Cells, grown in 24-well plates to 90% confluence, were washed twice with PBS and incubated in DMEM/F12 containing 1 mM IBMX, a protease inhibitor cocktail (40 ul/ml of medium), 0.1% BSA with or without C-ANF (0.1 μM) or Ostn[83-133] (0.1 μM) for 10 min at 37° C. prior to the addition of varying concentrations of CNP. They were then incubated for 15 min. After incubation, cells were washed twice with PBS and scraped in ice-cold ethanol (65%). The supernatant, obtained by centrifuging at 2000×g for 15 min at 4° C., was evaporated to dryness via speed vac. The amount of cGMP was measured with cGMP direct Biotrak™ EIA kit.

human GC-B = target: T3, human GC-B (Homo sapiens, UniProt P20594); assay: Intracellular cGMP in GC-B transfected HEK293 cells; assay type: cell-based; conditions: 10 nM peptide, 15 min
T3 construct: expressed in transfected cells; host or cells: HEK293, transient, pCDNA1.1 (CMV promoter)
T3 sequence (P20594 23-1047): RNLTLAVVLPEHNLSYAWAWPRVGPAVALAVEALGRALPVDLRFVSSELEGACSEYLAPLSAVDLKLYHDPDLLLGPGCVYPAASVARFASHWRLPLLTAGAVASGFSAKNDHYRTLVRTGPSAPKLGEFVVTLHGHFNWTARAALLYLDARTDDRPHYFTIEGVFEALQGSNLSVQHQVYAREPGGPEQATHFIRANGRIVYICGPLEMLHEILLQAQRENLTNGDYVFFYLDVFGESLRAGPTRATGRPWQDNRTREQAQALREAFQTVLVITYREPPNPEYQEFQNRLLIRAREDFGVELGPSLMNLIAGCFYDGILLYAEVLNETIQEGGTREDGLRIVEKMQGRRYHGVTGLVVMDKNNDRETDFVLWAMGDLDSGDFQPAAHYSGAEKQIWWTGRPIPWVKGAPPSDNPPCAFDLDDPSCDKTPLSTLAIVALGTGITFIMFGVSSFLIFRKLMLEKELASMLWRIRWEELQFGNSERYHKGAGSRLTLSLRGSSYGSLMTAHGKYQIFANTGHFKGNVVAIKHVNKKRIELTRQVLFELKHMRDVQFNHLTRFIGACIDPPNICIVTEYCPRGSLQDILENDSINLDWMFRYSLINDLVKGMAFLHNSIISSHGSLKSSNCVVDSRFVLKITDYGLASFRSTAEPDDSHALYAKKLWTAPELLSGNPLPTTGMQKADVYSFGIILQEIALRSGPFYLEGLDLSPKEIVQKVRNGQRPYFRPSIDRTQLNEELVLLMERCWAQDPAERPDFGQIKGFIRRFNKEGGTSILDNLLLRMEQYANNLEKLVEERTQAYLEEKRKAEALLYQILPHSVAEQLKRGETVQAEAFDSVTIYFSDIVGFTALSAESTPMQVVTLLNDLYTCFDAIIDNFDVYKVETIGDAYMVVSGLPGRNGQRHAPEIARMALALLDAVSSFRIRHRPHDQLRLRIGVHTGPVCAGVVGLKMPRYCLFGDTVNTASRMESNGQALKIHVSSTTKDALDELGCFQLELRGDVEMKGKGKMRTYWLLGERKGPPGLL

| Compound | effect on osteoblast differentiation [1] | effect on proliferation [1] | increase in cGMP levels upon ANP stimulation (NPR-C [2]) | IC50 (NPR-C [3]) | maximal inhibition, less than that of cold Ostn[83-133] (NPR-C [3]; 1 μM) | effect on bone length [4] | cGMP production by peptide alone (ATDC5 cells) | cGMP production (ATDC5 cells; varying concentrations of CNP, 15 min) | intracellular cGMP response via GC-B (human GC-B) | inhibition of bound 125I-Ostn[83-133] (NPR-C [3]; 1 μM cold peptide) | total binding (NPR-C [3]; ATDC5 cells, 24-well plates) |
| --- | --- | --- | --- | --- | --- | --- | --- | --- | --- | --- | --- |
| CC[C@H](C)[C@@H]1NC(=O)[C@H](CCCNC(=N)N)NC(=O)[C@H](CC(=O)O)NC(=O)[C@H](CCSC)NC(=O)[C@H](CCCNC(=N)N)NC(=O)CNC(=O)CNC(=O)[C@H](Cc2ccccc2)NC(=O)[C@@H](NC(=O)[C@H](CO)NC(=O)[C@H](CO)NC(=O)[C@H](CCCNC(=N)N)NC(=O)[C@H](CCCNC(=N)N)NC(=O)[C@H](CC(C)C)NC(=O)[C@@H](N)CO)CSSC[C@@H](C(=O)N[C@@H](CC(N)=O)C(=O)N[C@@H](CO)C(=O)N[C@@H](Cc2ccccc2)C(=O)N[C@@H](CCCNC(=N)N)C(=O)N[C@@H](Cc2ccc(O)cc2)C(=O)O)NC(=O)CNC(=O)[C@H](CC(C)C)NC(=O)CNC(=O)[C@H](CO)NC(=O)[C@H](CCC(N)=O)NC(=O)[C@H](C)NC(=O)CNC1=O [ANP] | stimulated osteoblast differentiation | inhibited proliferation | 1.5 fold |  |  |  |  |  |  |  |  |
| CC[C@H](C)[C@@H]1NC(=O)[C@H](CCCNC(=N)N)NC(=O)[C@H](CC(=O)O)NC(=O)[C@H]([C@@H](C)CC)NC(=O)[C@H](CCCNC(=N)N)NC(=O)CNC(=O)CNC(=O)[C@H](Cc2ccccc2)NC(=O)[C@@H](NC(=O)[C@H](CO)NC(=O)[C@H](CO)NC(=O)[C@@H](N)CCCNC(=N)N)CSSC[C@@H](C(N)=O)NC(=O)[C@H](C)NC(=O)CNC1=O [C-ANF] (H-RSSCFGGRIDRIGAC-NH2; disulfide 4-15; N-terminus and C-terminus assumed) | no effect |  |  | 6.7 nM | 15% | no effect | only trace of cGMP production |  |  |  |  |
| CNP: natriuretic peptide CNP (1-22) from Sigma; GC-B selective agonist | stimulated osteoblast differentiation | inhibited proliferation |  |  |  | significant increases in bone length |  | concentration-dependent cGMP production | greatest responses |  |  |
| SFSGFGSPLDRLSAGSVDHKGKQRKVVDHPKRRFGIPMDRIGRNRLSNSRG [Ostn[83-133]] |  |  |  |  |  |  | only trace of cGMP production |  |  | More than 90% | 76.5 pmol/well |

Source: patent US7470668B2, “Method of use of specific natriuretic peptide receptor c ligands, transgenic non-human mammals expressing specific natriuretic peptide receptor c antagonists and cells thereof” (Enobia Pharma Inc., priority 2005, dated 2008)
